Laboratory results as given in the supplement of paper PMC10307832.

Legend:
Test in all cases: relative viability (nuclei count vs DMSO), 5 days (fraction); higher = more cells survive
[1] = tested on: NCI-H727
Method in brief: (§1)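 Lung cancer cell lines in 1536-well plates were dosed by pin tool the day after seeding, either with one drug alone or with a fixed anchor-drug dose plus five library-drug doses (not always all listed) in √10 steps. After 5 days, cells were fixed and their nuclei stained in one step (final 0.05% Triton X-100, 1% formaldehyde, 1 ug/ml Hoechst), then counted on 4× images. Relative viability is the nuclei count in treated wells divided by that in vehicle wells. Values are medians of duplicate plates.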

[2] = tested on: NCI-H1650
Method in brief: as §1

[3] = tested on: SK-LU-1
Method in brief: as §1

[4] = tested on: LXF-289
Method in brief: as §1

[5] = tested on: LCLC-97TM1
Method in brief: as §1

[6] = tested on: HCC-827
Method in brief: as §1

[7] = tested on: NCI-H322M
Method in brief: as §1

[8] = tested on: NCI-H2405
Method in brief: as §1

[9] = tested on: HCC-44
Method in brief: as §1

[10] = tested on: NCI-H1437
Method in brief: as §1

[11] = tested on: BEN
Method in brief: as §1

[12] = tested on: HOP-62
Method in brief: as §1

[13] = tested on: NCI-H3122
Method in brief: as §1

[14] = tested on: NCI-H647
Method in brief: as §1

[15] = tested on: LCLC-103H
Method in brief: as §1

[16] = tested on: NCI-H1944
Method in brief: as §1

[17] = tested on: NCI-H2228
Method in brief: as §1

[18] = tested on: 201T
Method in brief: as §1

[19] = tested on: NCI-H2087
Method in brief: as §1

[20] = tested on: RERF-LC-KJ
Method in brief: as §1

[21] = tested on: CAL-12T
Method in brief: as §1

**Q.** `Oc1nc(-c2ccc(C(F)(F)F)cc2)nc2c1CSCC2` [XAV939] + C[C@@H](Oc1cc(-c2cnn(C3CCNCC3)c2)cnc1N)c1c(Cl)ccc(F)c1Cl [Crizotinib] (partner 1 µM) was tested. Which relative viability ([1]; first compound 0.08 µM) did it give?
**A.** The relative viability was 0.812.

**Q.** And the relative viability ([1]; first compound 0.253 µM)?
**A.** Its relative viability is 0.566.

**Q.** What about the relative viability ([1]; first compound 0.8 µM) of the same compound?
**A.** The relative viability was 0.722.

**Q.** And the relative viability ([1]; first compound 2.53 µM)?
**A.** The relative viability was 0.765.

**Q.** What about the relative viability ([2]; first compound 0.08 µM) of the same compound?
**A.** Its relative viability is 1.1.

**Q.** And the relative viability ([2]; first compound 0.253 µM)?
**A.** The relative viability was 0.699.

**Q.** And the relative viability ([2]; first compound 0.8 µM)?
**A.** The relative viability was 0.948.

**Q.** And the relative viability ([2]; first compound 2.53 µM)?
**A.** The relative viability was 0.729.

**Q.** What about the relative viability ([3]; first compound 0.08 µM) of the same compound?
**A.** Its relative viability is 0.929.

**Q.** And the relative viability ([3]; first compound 0.253 µM)?
**A.** The relative viability was 0.809.

**Q.** And the relative viability ([3]; first compound 0.8 µM)?
**A.** Its relative viability is 0.936.

**Q.** What about the relative viability ([3]; first compound 2.53 µM) of the same compound?
**A.** Its relative viability is 0.823.

**Q.** What about the relative viability ([4]; first compound 0.08 µM) of the same compound?
**A.** Its relative viability is 0.833.

**Q.** What about the relative viability ([4]; first compound 0.253 µM) of the same compound?
**A.** Its relative viability is 0.754.

**Q.** And the relative viability ([4]; first compound 0.8 µM)?
**A.** The relative viability was 0.829.

**Q.** What about the relative viability ([4]; first compound 2.53 µM) of the same compound?
**A.** The relative viability was 0.874.

**Q.** And the relative viability ([5]; first compound 0.08 µM)?
**A.** The relative viability was 0.488.

**Q.** What about the relative viability ([5]; first compound 0.253 µM) of the same compound?
**A.** The relative viability was 0.344.

**Q.** What about the relative viability ([5]; first compound 0.8 µM) of the same compound?
**A.** The relative viability was 0.361.

**Q.** What about the relative viability ([5]; first compound 2.53 µM) of the same compound?
**A.** The relative viability was 0.305.

**Q.** And the relative viability ([6]; first compound 0.08 µM)?
**A.** Its relative viability is 0.897.

**Q.** What about the relative viability ([6]; first compound 0.253 µM) of the same compound?
**A.** The relative viability was 0.818.

**Q.** What about the relative viability ([6]; first compound 0.8 µM) of the same compound?
**A.** The relative viability was 0.887.

**Q.** And the relative viability ([6]; first compound 2.53 µM)?
**A.** The relative viability was 0.949.

**Q.** And the relative viability ([7]; first compound 0.08 µM)?
**A.** The relative viability was 1.03.

**Q.** What about the relative viability ([7]; first compound 0.253 µM) of the same compound?
**A.** The relative viability was 0.83.

**Q.** What about the relative viability ([7]; first compound 0.8 µM) of the same compound?
**A.** Its relative viability is 0.911.

**Q.** And the relative viability ([7]; first compound 2.53 µM)?
**A.** Its relative viability is 0.547.

**Q.** What about the relative viability ([8]; first compound 0.08 µM) of the same compound?
**A.** The relative viability was 0.906.

**Q.** And the relative viability ([8]; first compound 0.253 µM)?
**A.** The relative viability was 0.816.

**Q.** What about the relative viability ([8]; first compound 0.8 µM) of the same compound?
**A.** The relative viability was 0.808.

**Q.** What about the relative viability ([8]; first compound 2.53 µM) of the same compound?
**A.** Its relative viability is 0.775.

**Q.** And the relative viability ([9]; first compound 0.08 µM)?
**A.** The relative viability was 0.785.

**Q.** What about the relative viability ([9]; first compound 0.253 µM) of the same compound?
**A.** The relative viability was 0.796.

**Q.** And the relative viability ([9]; first compound 0.8 µM)?
**A.** Its relative viability is 0.79.

**Q.** What about the relative viability ([9]; first compound 2.53 µM) of the same compound?
**A.** Its relative viability is 0.75.

**Q.** And the relative viability ([10]; first compound 0.08 µM)?
**A.** Its relative viability is 1.03.

**Q.** And the relative viability ([10]; first compound 0.253 µM)?
**A.** Its relative viability is 0.915.

**Q.** And the relative viability ([10]; first compound 0.8 µM)?
**A.** The relative viability was 0.947.

**Q.** And the relative viability ([10]; first compound 2.53 µM)?
**A.** The relative viability was 0.788.

**Q.** And the relative viability ([11]; first compound 0.08 µM)?
**A.** The relative viability was 0.868.

**Q.** And the relative viability ([11]; first compound 0.253 µM)?
**A.** Its relative viability is 0.788.

**Q.** And the relative viability ([11]; first compound 0.8 µM)?
**A.** The relative viability was 0.978.

**Q.** And the relative viability ([12]; first compound 0.08 µM)?
**A.** Its relative viability is 0.972.

**Q.** And the relative viability ([12]; first compound 0.253 µM)?
**A.** Its relative viability is 0.862.

**Q.** And the relative viability ([12]; first compound 0.8 µM)?
**A.** The relative viability was 0.906.

**Q.** What about the relative viability ([12]; first compound 2.53 µM) of the same compound?
**A.** The relative viability was 0.727.

**Q.** What about the relative viability ([13]; first compound 0.08 µM) of the same compound?
**A.** Its relative viability is 0.286.

**Q.** And the relative viability ([13]; first compound 0.253 µM)?
**A.** Its relative viability is 0.27.

**Q.** What about the relative viability ([13]; first compound 0.8 µM) of the same compound?
**A.** The relative viability was 0.238.

**Q.** What about the relative viability ([13]; first compound 2.53 µM) of the same compound?
**A.** Its relative viability is 0.234.

**Q.** And the relative viability ([14]; first compound 0.08 µM)?
**A.** The relative viability was 1.07.

**Q.** And the relative viability ([14]; first compound 0.253 µM)?
**A.** The relative viability was 1.

**Q.** What about the relative viability ([14]; first compound 0.8 µM) of the same compound?
**A.** The relative viability was 1.11.

**Q.** And the relative viability ([14]; first compound 2.53 µM)?
**A.** Its relative viability is 0.9.

**Q.** What about the relative viability ([15]; first compound 0.08 µM) of the same compound?
**A.** The relative viability was 1.07.

**Q.** What about the relative viability ([15]; first compound 0.253 µM) of the same compound?
**A.** Its relative viability is 0.917.

**Q.** And the relative viability ([15]; first compound 0.8 µM)?
**A.** Its relative viability is 0.984.

**Q.** What about the relative viability ([15]; first compound 2.53 µM) of the same compound?
**A.** Its relative viability is 0.968.

**Q.** What about the relative viability ([16]; first compound 0.08 µM) of the same compound?
**A.** Its relative viability is 1.32.

**Q.** And the relative viability ([16]; first compound 0.253 µM)?
**A.** The relative viability was 1.08.

**Q.** What about the relative viability ([16]; first compound 0.8 µM) of the same compound?
**A.** Its relative viability is 1.03.

**Q.** What about the relative viability ([16]; first compound 2.53 µM) of the same compound?
**A.** The relative viability was 0.959.

**Q.** And the relative viability ([17]; first compound 0.08 µM)?
**A.** Its relative viability is 0.431.

**Q.** And the relative viability ([17]; first compound 0.253 µM)?
**A.** Its relative viability is 0.438.

**Q.** What about the relative viability ([17]; first compound 0.8 µM) of the same compound?
**A.** The relative viability was 0.464.

**Q.** What about the relative viability ([17]; first compound 2.53 µM) of the same compound?
**A.** The relative viability was 0.398.

**Q.** What about the relative viability ([18]; first compound 0.08 µM) of the same compound?
**A.** Its relative viability is 0.995.

**Q.** What about the relative viability ([18]; first compound 0.253 µM) of the same compound?
**A.** Its relative viability is 1.03.

**Q.** What about the relative viability ([18]; first compound 0.8 µM) of the same compound?
**A.** Its relative viability is 0.94.

**Q.** What about the relative viability ([18]; first compound 2.53 µM) of the same compound?
**A.** The relative viability was 0.866.

**Q.** What about the relative viability ([19]; first compound 0.08 µM) of the same compound?
**A.** Its relative viability is 0.879.

**Q.** And the relative viability ([19]; first compound 0.253 µM)?
**A.** The relative viability was 0.998.

**Q.** And the relative viability ([19]; first compound 0.8 µM)?
**A.** The relative viability was 0.715.

**Q.** What about the relative viability ([19]; first compound 2.53 µM) of the same compound?
**A.** The relative viability was 0.797.

**Q.** What about the relative viability ([20]; first compound 0.08 µM) of the same compound?
**A.** The relative viability was 0.807.

**Q.** And the relative viability ([20]; first compound 0.253 µM)?
**A.** Its relative viability is 0.82.

**Q.** What about the relative viability ([20]; first compound 0.8 µM) of the same compound?
**A.** Its relative viability is 0.741.

**Q.** What about the relative viability ([20]; first compound 2.53 µM) of the same compound?
**A.** The relative viability was 0.582.

**Q.** And the relative viability ([21]; first compound 0.08 µM)?
**A.** Its relative viability is 0.687.

**Q.** What about the relative viability ([21]; first compound 0.253 µM) of the same compound?
**A.** The relative viability was 0.449.

**Q.** What about the relative viability ([21]; first compound 0.8 µM) of the same compound?
**A.** Its relative viability is 0.419.

**Q.** And the relative viability ([21]; first compound 2.53 µM)?
**A.** Its relative viability is 0.56.
